Laboratory results reported in patent US12398139B2, “Modulators of AMPA receptor signaling” (Centre for Addiction and Mental Health, priority 2019, dated 2025).
Counter-ions that a name gives are not always drawn. Values belong to the compound of their own block, whether it stands above or below them.

Experiments:
[1] = system: HEK-293 cells expressing GAPDH and GluR2; test: AMPA mediated cell-death assay (CellTox Green Cytotoxicity Assay); format: cell-based; conditions: Homo sapiens, HEK293, AMPA 500 μM, CTZ 100 μM, CellTox Green fluorescence, read-out: Potency, inhibition of AMPA-mediated neurotoxicity (IC50, concentration at which 50% of cell death was prevented)
Method: The ability of compounds to inhibit AMPA-mediated neurotoxicity was determined using the CellTox™ Green Cytotoxicity Assay (G8743) kit from Promega. In this assay, GAPDH and GluR2 are expressed in HEK-293 cells. AMPA (500 μM) was added to induce an AMPAR-mediated cell death signalling cascade. This is initiated by the GAPDH-GluR2 complex formation followed by the nuclear translocation of the complex, where it activates the p53-mediated cell death pathway. The presence of a compound which can block dimerization of GAPDH and GluR2 will prevent the nuclear translocation and the cell death and, thus this assay is an effective measure of the ability of a compound to prevent AMPA-mediated neurotoxicity and thus show therapeutic benefit in the treatment of MS.
The assay was performed as per the manufacture's instruction. Briefly, 293 cells stably expressing GluR1 and GluR2VENUS were transfected with pcDNA-RluC-GAPDH. AMPA (500 μM) were added to induce the cell death. CTZ (100 μM) was added to prevent AMPAR desensitization. Candidate molecules were added before the AMPA treatment to test its protective effect. Untreated cells and AMPA treated group were used as negative and positive control respectively. CellTox™ Green Reagent (˜5×) was then added to achieve a final concentration of 1× and cells were incubated at room temperature for 15 minutes (shielded from ambient light). The fluorescence intensity at 485-500 nmEx/520-530 nmEm was then measured and calculated as the percentage value of the positive control. The concentration at which 50% of cell death was prevented (IC50) was determined for each compound.
The potency was measured using the cell death assay described above.

[2] = target: T1, GluR2/GAPDH complex (Homo sapiens, UniProt P42262); test: Surface plasmon resonance target engagement assay (competitive GluR2-Venus affinity with GAPDH); conditions: SPR, captured GluR2-VENUS, 100 nM GAPDH peptide, compound top concentration 10 μM; read-out: Potency, GluR2 Binding Affinity (competitive inhibition of GluR2-GAPDH interaction)
T1 construct: host or cells: HEK293 cells stably transfected with GluR2-VENUS (lysate)
Method: This is one of the most commonly used techniques to study modulation of protein-protein interactions by small molecule ligands, providing real-time measurement of binding affinities and association/dissociation kinetics of complexes (compound/protein) in a label-free environment. The ability of our lead compound to disrupt the interaction of GluR2/GAPDH complex was measured by the binding affinity. Compounds were analyzed for competitive GluR2-Venus protein affinity (with GAPDH recombinant protein) using a Reichert 2SPR system. The surface was first charged with nickel (500 μM NiCl2 in HBS-P buffer for 300 s at a flow rate of 5 μL/min). The dextran surface was then activated with a 1:1 mixture of N-ethyl-N-dimethylaminopropylcarbodiimide (EDC) and N-hydroxysuccinimide (NHS) on line for final concentrations of EDC and NHS of 37.5 mg/mL and 5.8 mg/mL, respectively, for 420 s at a flow rate of 25 μL/min. Anti-VENUS antibody was first immobilized by capture onto a 500 KDa CM Dextran sensor chip (Reichert), proceeded by activation of the carboxymethylated dextran surface for mild amine coupling, followed by a final blocking injection of 1 M ethanolamine, pH 8.5. GluR2-VENUS (lysate of HEK293 cells stably transfected with GluR2-VENUS) was then captured for 900 s at a flow rate of 25 μL/min followed by a final blocking injection of 2% BSA, for 300 s at a flow rate of 5 μL/min.
The surface plasmon resonance affinity assay was carried out in a PBS buffer consisting of 0.05% Tween 20. For affinity measurements, compound solutions were prepared using ten three-fold serial dilutions in running buffer from a 10 μM top concentration (prepared from DMSO stocks) along with a zero (running buffer) control, mixed with 100 nM GAPDH peptide (Sigma Aldrich). A flow rate of 30 μl/min was used with a 420 s contact time (using high performance injection parameters) followed by a 120 s dissociation phase. Results were analyzed by subtracting the signals of the reference surface from the signals for the protein-bound surfaces and performing a solvent correction. Competitive binding responses were normalized throughout the screen to the percentage of inhibition of the respective small molecule compound. Three independent experiments were performed.
The binding affinity was measured using the surface plasmon resonance assay described above.

T1 sequence (P42262 25-883, species assumed, one chain of several): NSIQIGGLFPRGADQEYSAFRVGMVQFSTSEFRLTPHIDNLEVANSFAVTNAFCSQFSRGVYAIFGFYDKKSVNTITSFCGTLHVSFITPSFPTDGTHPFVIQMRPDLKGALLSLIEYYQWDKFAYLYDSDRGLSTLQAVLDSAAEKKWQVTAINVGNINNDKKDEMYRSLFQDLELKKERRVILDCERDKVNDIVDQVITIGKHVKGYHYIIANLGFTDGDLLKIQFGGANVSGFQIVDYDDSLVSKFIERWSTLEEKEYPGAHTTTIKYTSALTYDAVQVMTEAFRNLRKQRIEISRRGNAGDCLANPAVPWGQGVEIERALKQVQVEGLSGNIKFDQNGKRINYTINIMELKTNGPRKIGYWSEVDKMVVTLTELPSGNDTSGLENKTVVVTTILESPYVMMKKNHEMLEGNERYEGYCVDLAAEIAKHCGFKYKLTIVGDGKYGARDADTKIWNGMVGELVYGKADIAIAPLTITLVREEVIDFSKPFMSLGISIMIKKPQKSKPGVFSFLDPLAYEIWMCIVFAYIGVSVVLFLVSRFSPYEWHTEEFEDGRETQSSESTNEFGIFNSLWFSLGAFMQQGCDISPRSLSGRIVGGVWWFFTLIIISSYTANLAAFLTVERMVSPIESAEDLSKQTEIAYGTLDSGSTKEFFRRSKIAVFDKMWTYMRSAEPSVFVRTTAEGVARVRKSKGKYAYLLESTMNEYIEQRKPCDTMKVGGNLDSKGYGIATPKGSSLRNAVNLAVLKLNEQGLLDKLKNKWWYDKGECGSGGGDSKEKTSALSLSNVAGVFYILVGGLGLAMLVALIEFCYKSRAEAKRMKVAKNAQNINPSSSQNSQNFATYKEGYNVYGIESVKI

Compound: CN(C)C(=O)c1cncc(N2Cc3cn(Cc4cccc(F)c4)nc3C2)n1 [Compound 236, 6-(2-(3-Fluorobenzyl)-2,6-dihydropyrrolo[3,4-c]pyrazol-5(4H)-yl)-N,N-dimethylpyrazine-2-carboxamide]
IC50 [1]: 5000 nM
IC50 [2]: 275 nM

Compound: O=C(NC1CCCC1)c1ccnc(N2Cc3cn(Cc4ccc(F)cc4)nc3C2)n1 [Compound 213]
IC50 [1]: 24 nM
IC50 [2]: 20 nM

Compound: CN(C)C(=O)c1cccc(N2Cc3cn(Cc4cccc(F)c4)nc3C2)c1 [Compound 237, 3-(2-(3-Fluorobenzyl)-2,6-dihydropyrrolo[3,4-c]pyrazol-5(4H)-yl)-N,N-dimethylbenzamide]
IC50 [1]: 47 nM
IC50 [2]: 30 nM

Compound: Cc1ccc(Cn2cc3c(n2)CN(c2cncc(C(=O)N(C)C)n2)C3)cc1 [Compound 234, N,N-Dimethyl-6-(2-(4-methylbenzyl)-2,6-dihydropyrrolo[3,4-c]pyrazol-5(4H)-yl)pyrazine-2-carboxamide]
IC50 [1]: 114 nM
IC50 [2]: 139 nM

Compound: CN(C)C(=O)c1cccc(N2Cc3cn(CC4CCCCC4)nc3C2)c1 [Compound 239, 3-(2-(Cyclohexylmethyl)-2,6-dihydropyrrolo[3,4-c]pyrazol-5(4H)-yl)-N,N-dimethylbenzamide]
IC50 [1]: 26 nM
IC50 [2]: 41 nM

Compound: CN(C)C(=O)c1cccc(N2Cc3cn(Cc4ccc(F)cc4)nc3C2)c1 [Compound 217, 3-(2-(4-Fluorobenzyl)-2,6-dihydropyrrolo[3,4-c]pyrazol-5(4H)-yl)-N,N-dimethylbenzamide]
IC50 [1]: 6.7 nM
IC50 [2]: 67 nM

Compound: O=C(c1ccnc(N2Cc3cn(Cc4ccc(F)cc4)nc3C2)n1)N1CCCCC1 [Compound 244, (2-(2-(4-Fluorobenzyl)-2,6-dihydropyrrolo[3,4-c]pyrazol-5(4H)-yl)pyrimidin-4-yl)(piperidin-1-yl)methanone]
IC50 [1]: 2.4 nM
IC50 [2]: 2.4 nM

Compound: N#Cc1ccnc(N2Cc3cn(Cc4ccc(F)cc4)nc3C2)n1 [Compound 241, 2-(2-(4-Fluorobenzyl)-2,6-dihydropyrrolo[3,4-c]pyrazol-5(4H)-yl)pyrimidine-4-carbonitrile]
IC50 [1]: 72 nM
IC50 [2]: 20 nM

Compound: O=C(NC1CCCC1)c1cccc(N2Cc3cn(Cc4ccc(F)cc4)nc3C2)c1 [Compound 215, N-Cyclopentyl-3-(2-(4-fluorobenzyl)-2,6-dihydropyrrolo[3,4-c]pyrazol-5(4H)-yl)benzamide]
IC50 [1]: 3.5 nM
IC50 [2]: 48 nM

Compound: CN(C)C(=O)c1cncc(N2Cc3cn(CC4CCCCC4)nc3C2)n1 [Compound 238, 6-(2-(Cyclohexylmethyl)-2,6-dihydropyrrolo[3,4-c]pyrazol-5(4H)-yl)-N,N-dimethylpyrazine-2-carboxamide]
IC50 [1]: 167 nM
IC50 [2]: 102 nM

Compound: CN(C)C(=O)c1cccc(N2Cc3cn(CC4CC4)nc3C2)c1 [Compound 247, 3-(2-(Cyclopropylmethyl)-2,6-dihydropyrrolo[3,4-c]pyrazol-5(4H)-yl)-N,N-dimethylbenzamide]
IC50 [1]: 36 nM
IC50 [2]: 148 nM

Compound: N#Cc1cncc(N2Cc3cn(Cc4ccc(F)cc4)nc3C2)n1 [Compound 245, 6-(2-(4-Fluorobenzyl)-2,6-dihydropyrrolo[3,4-c]pyrazol-5(4H)-yl)pyrazine-2-carbonitrile]
IC50 [1]: 771 nM
IC50 [2]: 206 nM

Compound: Cc1ccc(Cn2cc3c(n2)CN(c2cccc(C(=O)N(C)C)c2)C3)cc1 [Compound 235, N,N-Dimethyl-3-(2-(4-methylbenzyl)-2,6-dihydropyrrolo[3,4-c]pyrazol-5(4H)-yl)benzamide]
IC50 [1]: 656 nM
IC50 [2]: 1070 nM

Compound: CN(C)C(=O)c1ccc(N2Cc3cn(Cc4ccc(F)cc4)nc3C2)cc1 [Compound 246, 4-(2-(4-Fluorobenzyl)-2,6-dihydropyrrolo[3,4-c]pyrazol-5(4H)-yl)-N,N-dimethylbenzamide]
IC50 [1]: 8.6 nM
IC50 [2]: 440 nM

Compound: CN1CCN(C(=O)c2ccnc(N3Cc4cn(Cc5ccc(F)cc5)nc4C3)n2)CC1 [Compound 212, (2-(2-(4-Fluorobenzyl)-2,6-dihydropyrrolo[3,4-c]pyrazol-5(4H)-yl)pyrimidin-4-yl)(4-methylpiperazin-1-yl)methanone]
IC50 [1]: 20 nM
IC50 [2]: 31 nM

Compound: CN1CCN(C(=O)c2cccc(N3Cc4cn(Cc5ccc(F)cc5)nc4C3)c2)CC1 [Compound 218, (3-(2-(4-Fluorobenzyl)-2,6-dihydropyrrolo[3,4-c]pyrazol-5(4H)-yl)phenyl)(4-methylpiperazin-1-yl)methanone]
IC50 [1]: 33 nM
IC50 [2]: 99 nM

Compound: O=C(NC1CCCCC1)c1ccnc(N2Cc3cn(Cc4ccc(F)cc4)nc3C2)n1 [Compound 209, N-Cyclohexyl-2-(2-(4-fluorobenzyl)-2,6-dihydropyrrolo[3,4-c]pyrazol-5(4H)-yl)pyrimidine-4-carboxamide]
IC50 [1]: 66 nM
IC50 [2]: 99 nM

Compound: N#Cc1cccc(N2Cc3cn(Cc4ccc(F)cc4)nc3C2)c1 [Compound 240, 3-(2-(4-Fluorobenzyl)-2,6-dihydropyrrolo[3,4-c]pyrazol-5(4H)-yl)benzonitrile]
IC50 [1]: 35 nM
IC50 [2]: 26 nM

Now from value to compound, other results behind:

IC50 [2]: 34 nM
Compound: O=C(c1ccnc(N2Cc3cn(Cc4ccc(F)cc4)nc3C2)n1)N1CCOCC1 [Compound 211, (2-(2-(4-Fluorobenzyl)-2,6-dihydropyrrolo[3,4-c]pyrazol-5(4H)-yl)pyrimidin-4-yl)(morpholino)methanone]
IC50 [1]: 44 nM

IC50 [2]: 130 nM
Compound: O=C(c1cccc(N2Cc3cn(Cc4ccc(F)cc4)nc3C2)c1)N1CCCC1 [Compound 243, (3-(2-(4-Fluorobenzyl)-2,6-dihydropyrrolo[3,4-c]pyrazol-5(4H)-yl)phenyl)(pyrrolidin-1-yl)methanone]
IC50 [1]: 1150 nM

IC50 [2]: 86 nM
Compound: CCN(CC)C(=O)c1cncc(N2Cc3cn(Cc4ccc(F)cc4)nc3C2)n1 [Compound 231, N,N-Diethyl-6-(2-(4-fluorobenzyl)-2,6-dihydropyrrolo[3,4-c]pyrazol-5(4H)-yl)pyrazine-2-carboxamide]
IC50 [1]: 250 nM

IC50 [2]: 14 nM
Compound: O=C(NCC(F)(F)F)c1cccc(N2Cc3cn(Cc4ccc(F)cc4)nc3C2)c1 [Compound 219, 3-(2-(4-Fluorobenzyl)-2,6-dihydropyrrolo[3,4-c]pyrazol-5(4H)-yl)-N-(2,2,2-trifluoroethyl)benzamide]
IC50 [1]: 28 nM

IC50 [2]: > 1000 nM
Compound: CN(C)C(=O)c1cncc(N2Cc3cnn(Cc4ccc(F)cc4)c3C2)n1 [REF, reference compound]
IC50 [1]: 200 nM

IC50 [2]: 85 nM
Compound: O=C(c1cccc(N2Cc3cn(Cc4ccc(F)cc4)nc3C2)c1)N1CCNCC1 [Compound 220, (3-(2-(4-Fluorobenzyl)-2,6-dihydropyrrolo[3,4-c]pyrazol-5(4H)-yl)phenyl)(piperazin-1-yl)methanone hydrochloride]
IC50 [1]: 15 nM

IC50 [2]: 24 nM
Compound: O=C(NC1CCCCC1)c1cncc(N2Cc3cn(Cc4ccc(F)cc4)nc3C2)n1 [Compound 214, N-Cyclohexyl-6-(2-(4-fluorobenzyl)-2,6-dihydropyrrolo[3,4-c]pyrazol-5(4H)-yl)pyrazine-2-carboxamide]
IC50 [1]: 46 nM

IC50 [2]: 33 nM
Compound: COc1ccc(Cn2cc3c(n2)CN(c2cccc(C(=O)N(C)C)c2)C3)cc1 [Compound 233, 3-(2-(4-Methoxybenzyl)-2,6-dihydropyrrolo[3,4-c]pyrazol-5(4H)-yl)-N,N-dimethylbenzamide]
IC50 [1]: 62 nM
